This passage reports EC50 results from paper PMC5592639 (ACS combinatorial science, 2016).

Type in all cases: cell-based
In test [1] the test system is normal human fibroblasts NHFB. Put plainly: Cytotoxicity against normal human fibroblasts. The note with it: Fibroblast.
Test [2] deals with H460 (human non-small cell lung carcinoma cells). Briefly: Cytotoxicity against H460. The note with it: NCI-H460.
Test [3] concerns H460TaxR (paclitaxel-resistant human non-small cell lung carcinoma cells). Put plainly: Cytotoxicity against H460TaxR. The note with it: H460/TaxR.

Regarding `CC(=O)O[C@H]1C(=O)[C@@]2(C)[C@H]([C@H](OC(=O)c3ccccc3)[C@]3(O)C[C@H](OC(=O)[C@H](O)[C@@H](NC(=O)c4ccccc4)c4ccccc4)C(C)=C1C3(C)C)[C@]1(OC(C)=O)CO[C@@H]1C[C@@H]2O` [PTX, paclitaxel], the results for the EC50 in test [1], in test [2] and in test [3] were 50 ± 30 nM, 6 ± 2 nM and 800 ± 400 nM, respectively.
